One assay has as its system B16-F10.9 melanoma. Briefly: LEFCT-EC in mice bearing subcutaneous B16-F10.9 melanoma. It counts as in vivo, C57BL/6 mice. The conditions noted are these: for Tumor size (mean ± standard error): 7 days after treatment. On the procedure: Animals: C57BL/6 male mice were obtained from the breeding colony of Tel-Aviv University, Israel. Mice were used at 8-12 weeks of age. Animal care and experimentation was carried out in accordance with Tel-Aviv University guidelines.
Melanoma tumor cell line: The highly metastatic, poorly immunogenic B16-F10.9 (F10.9) subclone of the B16 melanoma cell line was used to generate melanoma tumors in mice (Eisenbach L. et al., 1984. Int J Cancer 34:567). Cells were maintained in DMEM supplemented with 100 U/ml penicillin, 100 μg/ml streptomycin, 4 mM glutamine, 1 mM sodium pyruvate, 1% non-essential amino acids and 10% heat-inactivated fetal calf serum (FCS); and were cultured at 37° C. in a humidified incubator in an atmosphere of 7% carbon dioxide and 93% air.
Tumor generation protocol: F10.9 tumors were induced in C57BL/6 mice by subcutaneous injection of 2×10^5 F10.9 cells. Mice were subjected to experimental treatments once tumors reached 5 mm in diameter (about 60-70 mm^3). Chemotherapeutic drugs: The following chemotherapeutic drugs used were: cis-platinum (II) diamminedichloride (cisplatin; #P-4394, Sigma, Israel), dissolved in PBS for injections; Taxol (Mead Johnson Oncology Products, A Bristol-Myers Squibb, USA), obtained as a sterile nonpyrogenic solution containing 6 mg/ml paclitaxel, 527 mg/ml of purified Cremophor EL (polyoxyethylated castor oil) and 5-FU (Abic, Israel).
Low-strength electric field enhanced cancer therapy protocol: Mice were subjected to a single treatment of LEFCT-EC, once tumors reached 5 mm in diameter (11-17 days following tumor cell inoculation). Volumes of up to 100 μl of chemotherapeutic agents were injected into tumor loci, and exposures to electric fields were carried out 3-4 min following intratumoral injection of chemotherapeutic agents. To expose tumors to electric fields, stainless steel electrode needles (Karlsbader insect pins No 0. BioQuip Products, USA) soldered at their brassy ends with thin isolated copper wires were used. Electrodes were inserted to a depth of about 7 mm percutaneously into and in the immediate vicinity of the tumor; one cathode needle in the center of the tumor and three peripheral anodes, at a distance of about 5 mm from the cathode. The needles were connected to an electric pulse generator (Grass S48 Stimulator, USA). The field strength applied was about 40 V/cm; the repetition frequency, 500 Hz; and the pulse width, 180 μs. All mice were anesthetized prior to LEF treatment.
Statistical analysis: Statistical analysis of survival times (Kaplan-Meir test), survival comparisons between groups (Mantel-Cox test) and tumor volume differences between groups (Kolmogorov-Smirnov test) were performed using StatSoft Statistica statistical software. The 10-15% mortality rate in the 5 days following LEF or LEF-chemotherapy was considered as treatment-caused, therefore such cases of mortality were excluded.
Tumor volume determination: performed as described above in Example 1 of the Examples section.

In assay [1] the test system is DA3 mammary adenocarcinoma. Briefly: LEFCT-EC in mice bearing DA3 mammary adenocarcinoma. It is filed as in vivo, BALB/c mice. On the procedure: Animals: BALB/c female mice between the ages of 8 to 12 weeks obtained from the breeding colony of Tel-Aviv University, Israel were used in vivo tumor therapy experiments. Animal care and experimentation was carried out in accordance with Tel-Aviv University guidelines.
Tumor cell line: The highly metastatic, poorly immunogenic mammary adenocarcinoma cell line DA3 (Lopez D M. et al., 1981. J Natl Cancer Inst. 66:191) was used to generate mammary carcinoma tumors in mice. Cells were grown in DMEM supplemented with 100 U/ml penicillin, 100 μg/ml streptomycin, 4 mM glutamine, 1 mM sodium pyruvate, 1% non-essential amino acids and 10% heat-inactivated fetal calf serum (FCS), and cultured at 37° C. in a humidified incubator in an atmosphere of 7% carbon dioxide and 93% air. Tumors of this cell line grown to 1 cm in diameter produce metastatic cells, mainly in the lungs.
Reagents: Taxol (Mead Johnson Oncology Products, A Bristol-Myers Squibb, USA), obtained as a sterile nonpyrogenic solution containing 6 mg/ml paclitaxel, 527 mg/ml of purified Cremophor EL (polyoxyethylated castor oil) and 49.7% (v/v) dehydrated ethanol; and bleomycin (MegaPharm, Israel) were the anti cancer drugs used.
Low-strength electric field enhanced cancer chemotherapy protocol: Mice were subjected to a single treatment of LEF-chemotherapy, once primary tumors reached 5 mm in diameter (about 60-70 mm^3) (11-17 days following subcutaneous tumor cell inoculation). Up to 100 μl of chemotherapeutic agents was injected into the tumor loci. The exposure to electric field was carried out as described above in Example 2 of the Examples section.
Effect of LEFCT-EC using bleomycin or taxol on the survival of DA3 mammary adenocarcinoma bearing nice: BALB/c mice bearing DA3 mammary adenocarcinoma were treated by LEF-chemotherapy with intratumoral taxol (20 mg/kg) (FIG. 19) or bleomycin (30 U/kg) (FIG. 20) administration and their survival rate was compared with that of mice treated only with LEF or chemotherapy.

Results on one substance are retold here after patent publication US7395112B2, “Method and apparatus for treating tumors using low strength electric fields” (priority 2002, dated 2008).

Turning to bleomycin, the “Tumor size (mean ± standard error)” value in the assay on B16-F10.9 melanoma (LEF-CT (drug + LEF), cisplatin 4 mg/kg, bleomycin 8 U/kg, 5-FU 150 mg/kg, taxol 20 mg/kg) is listed as 573 ± 138 mm^3; in the assay on B16-F10.9 melanoma (intratumoral drug injection alone, same doses), 2456 ± 220 mm^3. The “mean survival time (MST)” value was 48 days with B16-F10.9 melanoma (LEF-chemotherapy: intratumoral drug + LEF about 40 V/cm 12 min, 120 days (cisplatin) or 180 days (taxol, bleomycin) after inoculation) and 34.3 days with B16-F10.9 melanoma (chemotherapy alone, intratumoral, no LEF). The “cure rate / animals alive and free of visible tumor” value in the assay with B16-F10.9 melanoma (LEF-chemotherapy, 180 days after tumor inoculation) is on record as 8.2%. Moreover, the “LEFCT-EC treated mice that died two months and later after treatment with pulmonary metastatic foci, free of primary tumor” value in the assay with B16-F10.9 melanoma (pooled statement for cisplatin, taxol or bleomycin) is listed as “About 10%”. The figures for the MST in the assay on B16-F10.9 melanoma (route comparison: bleomycin 8 U/kg intraperitoneally + LEF) and in the assay on B16-F10.9 melanoma (route comparison: bleomycin 8 U/kg intratumorally + LEF) were 34.6 days and 46.6 days, respectively. The animals alive in the assay with B16-F10.9 melanoma (route comparison: bleomycin 8 U/kg intratumorally + LEF, 180 days after tumor inoculation) was 5%. The “survival time, Mean” value in assay [1] (LEF-chemotherapy with the drug) came to 85.3; in assay [1] (drug alone, intratumoral), 40.2. Moreover, the “survival time, Median” value is on record as 64.5 in assay [1] (LEF-chemotherapy with the drug) and 37.5 in assay [1] (drug alone, intratumoral). The cure rate in assay [1] (LEF-chemotherapy, intratumoral taxol 20 mg/kg or bleomycin 30 U/kg, 180 days after tumor inoculation) was 30%.
